Data from publication PMC9021288 (Nature Communications, 2022).
Several values for one entry are separate records, joined by “and”; a condition that tells them apart may be missing. Equal values may be shown once. Entries after “also recorded” stand apart in the source; their conditions may differ.

Key:
[1] = tested on: human G6PD-A-deficient RBCs; assay: Hemolytic toxicity in NSG mice engrafted with G6PD-deficient human RBCs; conditions: for Hematocrit / Spleen weight: individual mice
Procedure: Hemolytic toxicity was determined in female NSG mice (Jackson Laboratories) using erythrocytes from a G6PD-A-deficient blood donor (0.4 u/g hemoglobin).

[2] = 7-day PK toxicity rat study; assay type: in vivo, Wistar Han rats; set-up: AUC(0 - t) / Cmax / Concentration (PK study): unit not given here
Source text: See the summary of the study design in Supplementary Table 31. Nine-week-old Wistar (Crl:WI (Han)) rats were obtained from Charles River Laboratories (Domaine des Oncins, Saint-Germain-Nuelles, France). […] Animals were examined daily for any altered clinical signs, body weights, and food consumption. Blood samples were taken at different timepoints after the test item administration, and toxicokinetic exposure assessed under the defined experimental conditions and analyzed using Phoenix (version 6.4 and 1.4) (Supplementary Table 32). Measurements included hematology and clinical chemistry measurements. Animals were euthanized and necropsied at the end of the dosing period. At necropsy, major organ systems and tissues were collected and weighed and then examined for gross lesions as well as for microscopic changes.

[3] = 10 mg/kg group, day 0, individual mice
[4] = 10 mg/kg group, day 4, individual mice
[5] = 10 mg/kg group, day 7, individual mice
[6] = 25 mg/kg group, day 0, individual mice
[7] = 25 mg/kg group, day 4, individual mice
[8] = 25 mg/kg group, day 7, individual mice
[9] = 50 mg/kg group, day 0, individual mice
[10] = 50 mg/kg group, day 4, individual mice
[11] = 50 mg/kg group, day 7, individual mice

With `C[C@@H](CNC(=O)[C@H](O)C(C)(C)CO)NC(=O)c1cc(F)c(F)cc1F` [MMV693183] the “Human RBCs” value [1, 3] was 72.9% and 76.8% and 80.6% and 72.4%, the Reticulocytes [1, 3] was 0.38% and 0.65% and 0.32% and 0.87% and the “Human RBCs” value [1, 4] was 67.9% and 72.1% and 75.9% and 68.6%. The Reticulocytes [1, 4] was 0.35% and 0.44% and 0.25% and 0.57%, the “Human RBCs” value [1, 5] was 59.6% and 65.8% and 72.2% and 63.3% and the Reticulocytes [1, 5] was 0.17% and 0.14% (2×) and 0.35%. The Hematocrit ([1]; 10 mg/kg group) was 53.45% and 54.69% and 60.66% and 56.45%, the Spleen weight ([1]; 10 mg/kg group) was 0.305 % of body weight and 0.306 % of body weight and 0.265 % of body weight and 0.369 % of body weight and the “Human RBCs” value [1, 6] was 78.9% and 75.9% and 78.6% and 71.6% and 75.5%. The Reticulocytes [1, 6] was 0.53% and 0.42% and 0.37% and 0.39% and 0.51%, the “Human RBCs” value [1, 7] was 77.9% and 71.9% and 76% and 64.1% and 70.3% and the Reticulocytes [1, 7] was 0.24% (2×) and 0.32% and 0.61% and 0.43%. For the same compound, the “Human RBCs” value [1, 8] was 77.4% and 67.8% and 68% and 58.3% and 68.8%, the Reticulocytes [1, 8] was 0.16% and 0.23% and 0.17% and 0.22% and 0.15% and the Hematocrit ([1]; 25 mg/kg group) was 61.54% and 73.81% and 62.16% and 56.36% and 57.35%. For the same compound, the Spleen weight ([1]; 25 mg/kg group) was 0.362 % of body weight and 0.462 % of body weight and 0.396 % of body weight and 0.366 % of body weight and 0.21 % of body weight, the “Human RBCs” value [1, 9] was 75.4% (2×) and 77.9% and 80.2% and 74.5% and the Reticulocytes [1, 9] was 0.4% and 0.55% and 0.42% and 0.47% and 0.58%. The “Human RBCs” value [1, 10] was 72.3% and 72.5% and 71.7% and 73.2% and 70.5%, the Reticulocytes [1, 10] was 0.27% and 0.41% and 0.23% and 0.34% and 0.49% and the “Human RBCs” value [1, 11] was 65.4% and 71.3% and 68.2% and 66% and 66.7%. The Reticulocytes [1, 11] was 0.2% (2×) and 0.1% (2×) and 0.3%, the Hematocrit ([1]; 50 mg/kg group) was 60.66% and 63.64% and 71.67% and 53.85% and 57.63% and the Spleen weight ([1]; 50 mg/kg group) was 0.357 % of body weight and 0.427 % of body weight and 0.135 % of body weight and 0.294 % of body weight and 0.382 % of body weight. For the same compound, the hemolytic toxicity ([1]; 10, 25, 50 mg/kg for four days) was “Absence of detectable hemolytic toxicity; also recorded: did not show signs of hemolytic toxicity”, the mortality ([2]; 60, 200 mg/kg/day, 7 days) was “no mortality occurred” and the Liver weight ([2]; PK 60 mg/kg/day, Females) was 6.5972 g. The Liver weight ([2]; PK 60 mg/kg/day, Males) was 11.4290 g, the Liver weight ([2]; PK 200 mg/kg/day, Females) was 8.4371 g and the Liver weight ([2]; PK 200 mg/kg/day, Males) was 13.5439 g. The “Concentration (PK study)” value ([2]; Females 60 mg/kg/day, Day 4, 8 hr) was 867 and 896 and 826, the “Concentration (PK study)” value ([2]; Females 60 mg/kg/day, Day 5, 8 hr) was 531 and 997 and 950 and the “Concentration (PK study)” value ([2]; Females 60 mg/kg/day, Day 6, 8 hr) was 642 and 776. For the same compound, the “Concentration (PK study)” value ([2]; Females 60 mg/kg/day, Day 7, 8 hr) was 936 and 1060 and 1050, the “Concentration (PK study)” value ([2]; Females 200 mg/kg/day, Day 1, 0.5 hr) was 81400 and 80500 and 68400 and the “Concentration (PK study)” value ([2]; Females 200 mg/kg/day, Day 1, 1 hr) was 65500 and 65700 and 66800. The “Concentration (PK study)” value ([2]; Females 200 mg/kg/day, Day 1, 4 hr) was 12200 and 17800 and 10500, the “Concentration (PK study)” value ([2]; Females 200 mg/kg/day, Day 3, 0.5 hr) was 70400 and 75700 and 61100 and the “Concentration (PK study)” value ([2]; Females 200 mg/kg/day, Day 3, 2 hr) was 18000 and 10900 and 12000. The “Concentration (PK study)” value ([2]; Females 200 mg/kg/day, Day 3, 8 hr) was 2420 and 2030 and 1670, the “Concentration (PK study)” value ([2]; Females 200 mg/kg/day, Day 4, 0.5 hr) was 47900 and 69400 and 35700 and the “Concentration (PK study)” value ([2]; Females 200 mg/kg/day, Day 4, 8 hr) was 1340 and 729 and 914. The “Concentration (PK study)” value ([2]; Females 200 mg/kg/day, Day 4, 24 hr) was “LLoQ”, the “Concentration (PK study)” value ([2]; Females 200 mg/kg/day, Day 5, 2 hr) was 3640 and 1960 and 3540 and the “Concentration (PK study)” value ([2]; Females 200 mg/kg/day, Day 5, 24 hr) was “LLoQ”. For the same compound, the “Concentration (PK study)” value ([2]; Females 200 mg/kg/day, Day 6, 0.5 hr) was 17200 and 19900 and 13800, the “Concentration (PK study)” value ([2]; Females 200 mg/kg/day, Day 6, 1 hr) was 5360 and 3620 and 4830 and the “Concentration (PK study)” value ([2]; Females 200 mg/kg/day, Day 6, 2 hr) was 2060 and 2560. For the same compound, the “Concentration (PK study)” value ([2]; Females 200 mg/kg/day, Day 6, 4 hr) was 1070 and 1300 and 1240, the “Concentration (PK study)” value ([2]; Females 200 mg/kg/day, Day 6, 24 hr) was “LLoQ” and the “Concentration (PK study)” value ([2]; Females 200 mg/kg/day, Day 7, 0.5 hr) was 16600 and 15200 and 10900. The “Concentration (PK study)” value ([2]; Females 200 mg/kg/day, Day 7, 1 hr) was 7160 and 4910 and 4560, the “Concentration (PK study)” value ([2]; Females 200 mg/kg/day, Day 7, 8 hr) was 446 and 524 and 294 and the “Concentration (PK study)” value ([2]; Females 200 mg/kg/day, Day 7, 24 hr) was “LLoQ”. For the same compound, the “Concentration (PK study)” value ([2]; Males 60 mg/kg/day, Day 1, 1 hr) was 20300 and 24600 and 25700, the “Concentration (PK study)” value ([2]; Males 60 mg/kg/day, Day 1, 2 hr) was 8920 and the “Concentration (PK study)” value ([2]; Males 60 mg/kg/day, Day 1, 8 hr) was 595 and 761 and 549.
